Laboratory results published in publication PMC8230565, “Bisavenathramide Analogues as Nrf2 Inductors and Neuroprotectors in In Vitro Models of Oxidative Stress and Hyperphosphorylation” (Antioxidants, 2021).

Legend:
Type in all cases: cell-based
Nrf2 = Nrf2 nuclear translocation, immunocytochemistry in AREc32 cells; conditions: 30 μM, 1 h
Description: AREc32 or SH-SY5Y cells were seeded in 24 multiwell plates (40,000 or 100,000 cells per well, respectively) on poly-D-Lysine coated crystal slides. AREc32 cells were incubated for 1 h with the compounds under assay, and were then fixed by treatment with a 4% solution of paraformaldehyde in PBS for 15 min, followed by three washings with PBS in 5 min intervals. SH-SY5Y cells were treated with compounds during 24 h, and then co-incubated with medium (basal), okadaic acid (OA, 20 nM), or OA plus compound 3i (10 μM). […]
Figure 4 Compound 3g effectively induces Nrf2 translocation and overexpression of Nrf2-ARE dependent genes in AREc32 cells. […] (B) Nrf2 nuclear localization analysis, measured as integrated intensity localized at the nucleus. HMOX1 (C) and NQO1 (D) expression in AREc32, measured by Western blot analysis. Cells were treated with compound 3g (30 µM), sulforaphane (10 µM), or culture medium (basal) for 24 h and protein expression was then assessed. Graphs are expressed as densitometric quantification using β-actin for normalization (bottom). […] Data are expressed as mean ± S.E.M. of six independent experiments. […]

HMOX1 = assay: Western blot of Nrf2-dependent protein expression in AREc32 cells: HMOX1; conditions: 30 μM, 24 h
Description: (§1) AREc32 cells were collected from plates after 24 h of treatment with the selected compound at 30 µM. Then, they were lysed in ice-cold lysis buffer (1% Nonidet P-40, 10% glycerol, 137 mM NaCl, 20 mM Tris HCl pH 7.5, 1 μg/mL leupeptin, 1 mM phenylmethylsulfonyl fluoride, 20 mM NaF, 1 mM sodium pyrophosphate, and 1 mM Na3VO4). After this treatment, proteins (30 μg) were resolved by gel electrophoresis on sodium dodecyl sulfate–polyacrylamide (12%) and transferred to Immobilon-P membranes (MilliporeSigma, Burlington, MA, USA). The membranes were incubated with anti-GCLc (1:1000, Ab41463 (Abcam, Cambridge, MA, USA), anti−HMOX1 (1:1000, ab68477, Abcam), anti-NQO1 (1:1000, 11451-1-AP, Proteintech, Manchester, UK), or anti-β-Actin (1:100,000, A3854, Merck, Madrid, Spain). Peroxidase-conjugated secondary antibodies (1:10,000 and anti-rabbit: SC-2357, Santa Cruz Biotechnology, Dallas, TX, USA) were employed to detect the proteins by enhanced chemoluminescence. Band intensities corresponding to immunoblot detection of protein samples were quantitated with Fiji software.
(§2) Figure 4 Compound 3g effectively induces Nrf2 translocation and overexpression of Nrf2-ARE dependent genes in AREc32 cells. […] (B) Nrf2 nuclear localization analysis, measured as integrated intensity localized at the nucleus. HMOX1 (C) and NQO1 (D) expression in AREc32, measured by Western blot analysis. […]

NQO1 = assay: Western blot of Nrf2-dependent protein expression in AREc32 cells: NQO1; conditions: 30 μM, 24 h
Description: as §1, §2

[1] = system: AT8 (Ser202, Thr205 phospho-Tau); assay: Phospho-tau (AT8) immunofluorescence in SH-SY5Y cells treated with okadaic acid; conditions: 10 µM, OA 20 nM, 8 h
Description: (§3) AREc32 or SH-SY5Y cells were seeded in 24 multiwell plates (40,000 or 100,000 cells per well, respectively) on poly-D-Lysine coated crystal slides. AREc32 cells were incubated for 1 h with the compounds under assay, and were then fixed by treatment with a 4% solution of paraformaldehyde in PBS for 15 min, followed by three washings with PBS in 5 min intervals. SH-SY5Y cells were treated with compounds during 24 h, and then co-incubated with medium (basal), okadaic acid (OA, 20 nM), or OA plus compound 3i (10 μM). Thereafter, cells were permeabilized by treatment with 0.5% Triton X-100 for 5 min, followed by three washings with PBS, and were incubated overnight with primary antibody anti-Nrf2 (ARE, 1:50, A-10, sc-365949, Santa Cruz Biotechnology, Dallas, TX, USA), anti-pTau AT8 (1:400, MN1020, Thermofisher, Madrid, Spain), and anti-HO-1 (1:400, Ab13243, Abcam, Madrid, Spain). After three washes with PBS, the cells were incubated with secondary antibodies (1:800, 1 h). In order to visualize the nuclei, the cells were counterstained during the second wash with 5 μg·mL^−1 of Hoechst 33342 (Invitrogen, Madrid, Spain). […]
(§4) Finally, we evaluated the capacity of compound 3i to reduce tau hyperphosphorylation in the SH-SY5Y cellular line induced by okadaic acid (OA). […]

HO-1 = HO-1 immunofluorescence in SH-SY5Y cells treated with okadaic acid; conditions: 10 µM, OA 20 nM, 8 h
Description: as §3, §4

With `COC(=O)C1=C(C)N(CCc2ccccc2)C(=O)/C1=C\c1cc(OC)c(OC)c(OC)c1` [Compound 3g, Methyl (Z)-2-Methyl-5-oxo-1-phenethyl-4-(3,4,5-trimethoxybenzylidene)-4,5-dihydro-1H-pyrrole-3-carboxylate] the “Nrf2 distribution in cells” value (Nrf2) was “predominately nuclear distribution of Nrf2”, the HMOX1 protein levels (HMOX1) was “significantly increased” and the NQO1 protein levels (NQO1) was “significantly increased”.

In the case of `COC(=O)C1=C(C)N(CCc2ccccc2)C(=O)/C1=C\c1ccc(O)c(O)c1` [Compound 3i, Methyl (Z)-4-(3,4-Dihydroxybenzylidene)-2-methyl-5-oxo-1-phenethyl-4,5-dihydro-1H-pyrrole-3-carboxylate], the phospho-tau levels [1] is reported as “significantly reduced phopho-tau levels to basal levels” and the “increase of HO-1 levels compared to basal levels” value (HO-1) is reported as 46%.
